For series [1] the following is noted: unbound concentration ratio between hepatocyte and plasma; ref supplement [39] rifampicin, [40] asunaprevir, [41] bosentan, ciclosporin, ketoconazole; cited from earlier work.
On the set-up of series [2]: method as in supplement [33]. As to conditions: clinical; ref supplement [33]; cited from earlier work.
The subject of series [3] is NTCP. Also on record: method as in earlier work. The settings on record: in vitro; ref 30,43-55 and in-house data from Merck & Co.; cited from earlier work.
Series [4] deals with OATP1B. Also on record: method as in supplement [18]. As to conditions: plasma AUC ratio; ref supplement [18]; cited from earlier work.
The target of series [5] is rMrp2 (Rattus norvegicus, UniProt Q63120). Also on record: method as in PMID 16258024, PMID 29891589, PMID 21415249, PMID 11883641, PMID 15550721. The settings on record: in vitro; NI = reported not to inhibit the transporter; cited from earlier work.
Sequence of rMrp2 (Q63120 whole entry): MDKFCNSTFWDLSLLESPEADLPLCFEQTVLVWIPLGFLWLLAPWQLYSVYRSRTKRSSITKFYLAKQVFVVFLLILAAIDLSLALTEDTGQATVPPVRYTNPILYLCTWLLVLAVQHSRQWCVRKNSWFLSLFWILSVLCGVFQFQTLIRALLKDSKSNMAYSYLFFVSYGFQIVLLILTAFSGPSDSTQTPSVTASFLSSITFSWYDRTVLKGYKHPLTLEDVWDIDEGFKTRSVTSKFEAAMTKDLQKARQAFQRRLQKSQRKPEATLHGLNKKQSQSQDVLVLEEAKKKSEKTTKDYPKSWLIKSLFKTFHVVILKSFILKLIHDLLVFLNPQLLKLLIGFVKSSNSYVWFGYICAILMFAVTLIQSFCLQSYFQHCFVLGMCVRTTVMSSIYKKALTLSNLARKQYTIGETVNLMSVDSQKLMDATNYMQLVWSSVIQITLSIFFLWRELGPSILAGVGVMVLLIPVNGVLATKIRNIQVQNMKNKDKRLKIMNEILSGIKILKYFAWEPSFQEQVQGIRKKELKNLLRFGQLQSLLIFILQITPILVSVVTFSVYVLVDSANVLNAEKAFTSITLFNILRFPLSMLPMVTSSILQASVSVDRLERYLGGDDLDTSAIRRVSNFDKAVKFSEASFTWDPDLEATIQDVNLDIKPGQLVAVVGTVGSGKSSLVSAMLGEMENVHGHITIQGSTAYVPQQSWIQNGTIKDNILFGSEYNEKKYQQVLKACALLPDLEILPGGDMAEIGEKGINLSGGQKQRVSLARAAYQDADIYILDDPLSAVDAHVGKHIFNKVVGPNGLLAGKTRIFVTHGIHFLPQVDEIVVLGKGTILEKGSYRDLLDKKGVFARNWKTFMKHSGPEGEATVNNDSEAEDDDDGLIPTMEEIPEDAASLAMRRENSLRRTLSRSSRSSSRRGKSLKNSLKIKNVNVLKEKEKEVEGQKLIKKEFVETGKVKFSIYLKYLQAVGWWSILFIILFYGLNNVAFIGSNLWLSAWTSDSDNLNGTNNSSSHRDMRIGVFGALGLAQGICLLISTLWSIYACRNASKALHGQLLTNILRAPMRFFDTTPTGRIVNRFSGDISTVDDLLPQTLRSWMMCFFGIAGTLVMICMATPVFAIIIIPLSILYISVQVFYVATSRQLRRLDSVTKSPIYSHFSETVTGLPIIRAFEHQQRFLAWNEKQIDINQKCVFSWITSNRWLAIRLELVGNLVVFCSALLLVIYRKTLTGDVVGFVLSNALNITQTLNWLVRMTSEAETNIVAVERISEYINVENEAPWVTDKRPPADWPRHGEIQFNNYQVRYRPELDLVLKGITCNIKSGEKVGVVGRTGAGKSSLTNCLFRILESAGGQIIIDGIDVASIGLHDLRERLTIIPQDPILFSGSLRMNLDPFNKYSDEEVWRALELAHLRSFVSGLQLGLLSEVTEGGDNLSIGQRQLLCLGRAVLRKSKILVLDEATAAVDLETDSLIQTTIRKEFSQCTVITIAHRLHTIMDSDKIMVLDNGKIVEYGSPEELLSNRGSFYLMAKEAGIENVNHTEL
For series [6], the system named is rOatp1a4. As to conditions: in vitro, cited from earlier work.
The conditions of series [7]: in vivo; cited from earlier work.
Series [8] is described as follows: Gadoxetate PBPK model transport parameters. Further details: species or system rat. The source says: A previously developed reduced PBPK model of gadoxetate was used in the current study. The PBPK model (Figure 1) is composed of seven compartments: blood, spleen, splanchnic organs, liver interstitial space, hepatocytes, rest of the body (ROB) vascular, and extravascular space. In the ROB compartment, muscles, fat, bones, and skin, among others, are represented.
A permeability-limited liver model was applied to describe the gadoxetate active uptake into the hepatocytes, as per Equation (1). (1) Vliv,extrdcliv,extr/dt=inputsplan+inputart−Qhcliv,extr/Kliv, extr−b−CLuptake· cliv,extr−CLpassive(cliv,extr−fu,liv, cell cliv,cell)Vliv,celldcliv,cell/dt=CLuptake cliv,extr+CLpassive(cliv,extr−fu,liv, cell cliv,cell)−CLbiliary fu,liv,cell cliv,cell […]
cliv,extr , cliv,cell [μmol/L] and Vliv,extr , Vliv,int [L] are the gadoxetate concentrations ( c ) and volumes ( V ) of the liver extracellular space and hepatocytes, respectively. […] Details of the model development, relations between concentrations in PBPK compartments and measured ΔR1 , parameters identification, and performance were described previously. […]

Broadly, the IC50 is the concentration at which inhibition is half-maximal. In the case of `COc1ccccc1Oc1c(NS(=O)(=O)c2ccc(C(C)(C)C)cc2)nc(-c2ncccn2)nc1OCCO` [Bosentan], in series [1], the Kpuu is on record as 3. Further, the “treated patients with mild liver dysfunction” value in series [2] is reported as “about 10%”. In addition, in series [3], the IC50 is 18 µM.
For the compound `C=C[C@@H]1C[C@]1(NC(=O)[C@@H]1C[C@@H](Oc2ncc(OC)c3ccc(Cl)cc23)CN1C(=O)[C@@H](NC(=O)OC(C)(C)C)C(C)(C)C)C(=O)NS(=O)(=O)C1CC1` [Asunaprevir], in series [1], the Kpuu was 11.5. For the same compound, the “AUCR of rosuvastatin (presence vs absence of inhibitor)” value in series [4] is recorded as < 2 fold. Besides, in series [5], the IC50 is 11 µM.
As a reminder, the Ki is a dissociation constant, usually derived from enzyme kinetics or from competition with a known ligand. As to `CO[C@H]1/C=C/O[C@@]2(C)Oc3c(C)c(O)c4c(O)c(c(/C=N/N5CCN(C)CC5)c(O)c4c3C2=O)NC(=O)/C(C)=C\C=C\[C@H](C)[C@H](O)[C@@H](C)[C@@H](O)[C@@H](C)[C@H](OC(C)=O)[C@@H]1C` [Rifampicin], the results for the IC50 in series [3], in series [6] (read-out: IC50 (µM) rOatp1a4) and in series [5] were 277 µM, 1.3 µM and 20 to 53 µM, respectively. The Ki in series [6] (read-out: Ki (µM) rOatp1a4) is 2.9 µM.
As for `CCOc1ccc(C[C@@H](CN(CCN(CC(=O)[O-])CC(=O)[O-])CC(=O)[O-])N(CC(=O)[O-])CC(=O)[O-])cc1.[Gd+3].[H+].[H+]` [gadoxetate, Gadoxetate], the hepatic extraction result in series [7] was “approx. 20%”. Moreover, in series [8] (total concentration in hepatocytes), the “CLbiliary, new value in unified units” value stood at 0.756 mL/min. The “CLuptake, new value in unified units” value in series [8] (total concentration in the liver interstitial fluid) is 36.2 mL/min.

The record behind these values is PMC10057977, “Use of In Vivo Imaging and Physiologically-Based Kinetic Modelling to Predict Hepatic Transporter Mediated Drug–Drug Interactions in Rats” (Pharmaceutics, 2023).
